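Tested at 5 concentrations; 48 h exposure; 96-well plates; endpoints linearly interpolated, else capped at highest concentration. GI50 = concentration required for 50% inhibition of growth. The concentration for full growth arrest is given as TGI.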
What was measured:
Test in all cases: DTP human tumour cell line panel, 48 h; in the data active = GI50 below about 0.43 µM; inactive = the rest
T-47D breast = tested on: T-47D breast
RXF 393 renal = tested on: RXF 393 renal
UACC-257 melanoma = tested on: UACC-257 melanoma
SK-MEL-5 melanoma = tested on: SK-MEL-5 melanoma
NCI-H226 lung = tested on: NCI-H226 lung
PC-3 prostate = tested on: PC-3 prostate
NCI-H460 lung = tested on: NCI-H460 lung
KM12 colon = tested on: KM12 colon
NCI-H522 lung = tested on: NCI-H522 lung
M14 melanoma = tested on: M14 melanoma
SW-620 colon = tested on: SW-620 colon
OVCAR-8 ovarian = tested on: OVCAR-8 ovarian
HT29 colon = tested on: HT29 colon
K-562 leukemia = tested on: K-562 leukemia
SF-268 CNS = tested on: SF-268 CNS
SK-MEL-2 melanoma = tested on: SK-MEL-2 melanoma
DU-145 prostate = tested on: DU-145 prostate
SNB-75 CNS = tested on: SNB-75 CNS
TK-10 renal = tested on: TK-10 renal
IGROV1 ovarian = tested on: IGROV1 ovarian
SNB-19 CNS = tested on: SNB-19 CNS
NCI-H23 lung = tested on: NCI-H23 lung
ACHN renal = tested on: ACHN renal
CCRF-CEM leukemia = tested on: CCRF-CEM leukemia
MCF7 breast = tested on: MCF7 breast
MOLT-4 leukemia = tested on: MOLT-4 leukemia
NCI/ADR-RES ovarian = tested on: NCI/ADR-RES ovarian
SK-OV-3 ovarian = tested on: SK-OV-3 ovarian
SK-MEL-28 melanoma = tested on: SK-MEL-28 melanoma
HOP-92 NSCLC = tested on: HOP-92 NSCLC
HCT-116 colon = tested on: HCT-116 colon
A549 NSCLC = tested on: A549 NSCLC
HCT-15 colon = tested on: HCT-15 colon
HCC-2998 colon = tested on: HCC-2998 colon
UACC-62 melanoma = tested on: UACC-62 melanoma
LOX IMVI melanoma = tested on: LOX IMVI melanoma
OVCAR-4 ovarian = tested on: OVCAR-4 ovarian
COLO 205 colon = tested on: COLO 205 colon
CAKI-1 renal = tested on: CAKI-1 renal
HOP-62 NSCLC = tested on: HOP-62 NSCLC
SN12C renal = tested on: SN12C renal
EKVX NSCLC = tested on: EKVX NSCLC
OVCAR-3 ovarian = tested on: OVCAR-3 ovarian
SF-295 CNS = tested on: SF-295 CNS
SF-539 CNS = tested on: SF-539 CNS
RPMI-8226 leukemia = tested on: RPMI-8226 leukemia
786-0 renal = tested on: 786-0 renal
U251 CNS = tested on: U251 CNS
BT-549 breast = tested on: BT-549 breast
MDA-MB-435 = tested on: MDA-MB-435
HS 578T breast = tested on: HS 578T breast
MDA-MB-231 breast = tested on: MDA-MB-231 breast
UO-31 renal = tested on: UO-31 renal
OVCAR-5 ovarian = tested on: OVCAR-5 ovarian
HL-60(TB) leukemia = tested on: HL-60(TB) leukemia
MALME-3M melanoma = tested on: MALME-3M melanoma
A498 renal = tested on: A498 renal

Cc1ccc(Cl)cc1Nc1nc(C(F)(F)F)ccc1C(N)=O
18.5 µM: TGI (TK-10 renal)
41.2 µM: TGI (SF-295 CNS)
47.8 µM: TGI (KM12 colon)
35.7 µM: TGI (M14 melanoma)
49.4 µM: TGI (OVCAR-5 ovarian)
13.6 µM: TGI (786-0 renal)
20.3 µM: TGI (HCC-2998 colon)
55.7 µM: TGI (OVCAR-3 ovarian)
inactive: GI50 (T-47D breast) 3.54 µM | GI50 (RXF 393 renal) 10.5 µM | GI50 (UACC-257 melanoma) 24.8 µM | GI50 (SK-MEL-5 melanoma) 1.92 µM | GI50 (NCI-H226 lung) 1.45 µM | GI50 (PC-3 prostate) 14 µM | GI50 (NCI-H460 lung) 3.28 µM | GI50 (KM12 colon) 5.09 µM | GI50 (NCI-H522 lung) 4.63 µM | GI50 (M14 melanoma) 10.7 µM | GI50 (SW-620 colon) 6.98 µM | GI50 (OVCAR-8 ovarian) 29.4 µM | GI50 (HT29 colon) 4.02 µM | GI50 (K-562 leukemia) 21.3 µM | GI50 (SF-268 CNS) 6.46 µM | GI50 (SK-MEL-2 melanoma) 20.4 µM | GI50 (DU-145 prostate) 9.77 µM | GI50 (SNB-75 CNS) 8.65 µM | GI50 (TK-10 renal) 4.31 µM | GI50 (IGROV1 ovarian) 5.19 µM | GI50 (SNB-19 CNS) 11.3 µM | GI50 (NCI-H23 lung) 2.76 µM | GI50 (ACHN renal) 3.67 µM | GI50 (CCRF-CEM leukemia) 15.1 µM | GI50 (MCF7 breast) 3.92 µM | GI50 (MOLT-4 leukemia) 7.54 µM | GI50 (NCI/ADR-RES ovarian) 5.7 µM | GI50 (SK-OV-3 ovarian) 16.9 µM | GI50 (SK-MEL-28 melanoma) 43.8 µM | GI50 (HOP-92 NSCLC) 15.1 µM | GI50 (HCT-116 colon) 5.91 µM | GI50 (A549 NSCLC) 12.8 µM | GI50 (HCT-15 colon) 5.73 µM | GI50 (HCC-2998 colon) 6.1 µM | GI50 (UACC-62 melanoma) 6.56 µM | GI50 (LOX IMVI melanoma) 2.23 µM | GI50 (OVCAR-4 ovarian) 22.3 µM | GI50 (COLO 205 colon) 5.48 µM | GI50 (CAKI-1 renal) 3.5 µM | GI50 (HOP-62 NSCLC) 3.5 µM | GI50 (SN12C renal) 5.5 µM | GI50 (EKVX NSCLC) 4.16 µM | GI50 (OVCAR-3 ovarian) 13.2 µM | GI50 (SF-295 CNS) 11.9 µM | GI50 (SF-539 CNS) 4.46 µM | GI50 (RPMI-8226 leukemia) 18.6 µM | GI50 (786-0 renal) 3.28 µM | GI50 (U251 CNS) 4.09 µM | GI50 (BT-549 breast) 4.53 µM | GI50 (MDA-MB-435) 12 µM | GI50 (HS 578T breast) 0.809 µM | GI50 (MDA-MB-231 breast) 2.47 µM | GI50 (UO-31 renal) 5.37 µM | GI50 (OVCAR-5 ovarian) 8.48 µM
31.2 µM: TGI (NCI/ADR-RES ovarian)
22.8 µM: TGI (HCT-116 colon)
28.6 µM: TGI (BT-549 breast)
60.4 µM: TGI (MDA-MB-435)
> 100 µM: TGI (T-47D breast) | TGI (NCI-H460 lung) | TGI (SW-620 colon) | TGI (OVCAR-8 ovarian) | TGI (HT29 colon) | TGI (SF-268 CNS) | TGI (SK-MEL-2 melanoma) | TGI (DU-145 prostate) | TGI (SNB-75 CNS) | TGI (SNB-19 CNS) | TGI (MCF7 breast) | TGI (SK-OV-3 ovarian) | TGI (SK-MEL-28 melanoma) | TGI (A549 NSCLC) | TGI (HCT-15 colon) | TGI (OVCAR-4 ovarian) | TGI (UO-31 renal)
17.4 µM: TGI (HOP-62 NSCLC)
71.2 µM: TGI (COLO 205 colon)
71.1 µM: TGI (PC-3 prostate)
3.94 µM: TGI (HS 578T breast)
6.6 µM: TGI (SK-MEL-5 melanoma)
11.8 µM: TGI (MDA-MB-231 breast)
15.3 µM: TGI (ACHN renal)
26.1 µM: TGI (U251 CNS)
23.9 µM: TGI (CAKI-1 renal)
28 µM: TGI (SF-539 CNS)
48.4 µM: TGI (MOLT-4 leukemia)
83.5 µM: TGI (UACC-257 melanoma)
34 µM: TGI (RXF 393 renal)
91.8 µM: TGI (SN12C renal)
46.1 µM: TGI (K-562 leukemia)
26.6 µM: TGI (UACC-62 melanoma)
15.9 µM: TGI (NCI-H23 lung)
40.7 µM: TGI (HOP-92 NSCLC)
60.7 µM: TGI (NCI-H522 lung)
59.2 µM: TGI (IGROV1 ovarian)
11.4 µM: TGI (LOX IMVI melanoma)
36.2 µM: TGI (CCRF-CEM leukemia)
46.8 µM: TGI (EKVX NSCLC) | TGI (RPMI-8226 leukemia)
9.81 µM: TGI (NCI-H226 lung)

COC(=O)c1oc2c(C(C)=O)c(OCCN3CCOCC3)c(OC)cc2c1C
inactive: GI50 (T-47D breast) > 100 µM | GI50 (UACC-257 melanoma) > 100 µM | GI50 (SK-MEL-5 melanoma) > 100 µM | GI50 (NCI-H226 lung) > 100 µM | GI50 (PC-3 prostate) > 100 µM | GI50 (NCI-H460 lung) > 100 µM | GI50 (HL-60(TB) leukemia) > 100 µM | GI50 (NCI-H522 lung) > 100 µM | GI50 (M14 melanoma) > 100 µM | GI50 (MALME-3M melanoma) > 100 µM | GI50 (SW-620 colon) > 100 µM | GI50 (OVCAR-8 ovarian) > 100 µM | GI50 (HT29 colon) > 100 µM | GI50 (K-562 leukemia) > 100 µM | GI50 (SF-268 CNS) > 100 µM | GI50 (SK-MEL-2 melanoma) > 100 µM | GI50 (SNB-75 CNS) > 100 µM | GI50 (TK-10 renal) > 100 µM | GI50 (IGROV1 ovarian) > 100 µM | GI50 (SNB-19 CNS) > 100 µM | GI50 (NCI-H23 lung) > 100 µM | GI50 (ACHN renal) > 100 µM | GI50 (CCRF-CEM leukemia) > 100 µM | GI50 (MCF7 breast) > 100 µM | GI50 (MOLT-4 leukemia) > 100 µM | GI50 (NCI/ADR-RES ovarian) > 100 µM | GI50 (SK-OV-3 ovarian) > 100 µM | GI50 (SK-MEL-28 melanoma) > 100 µM | GI50 (A498 renal) > 100 µM | GI50 (HOP-92 NSCLC) > 100 µM | GI50 (HCT-116 colon) > 100 µM | GI50 (A549 NSCLC) > 100 µM | GI50 (HCT-15 colon) > 100 µM | GI50 (HCC-2998 colon) > 100 µM | GI50 (UACC-62 melanoma) > 100 µM | GI50 (LOX IMVI melanoma) > 100 µM | GI50 (OVCAR-4 ovarian) > 100 µM | GI50 (COLO 205 colon) > 100 µM | GI50 (CAKI-1 renal) > 100 µM | GI50 (HOP-62 NSCLC) > 100 µM | GI50 (SN12C renal) > 100 µM | GI50 (EKVX NSCLC) > 100 µM | GI50 (OVCAR-3 ovarian) > 100 µM | GI50 (SF-295 CNS) > 100 µM | GI50 (SF-539 CNS) > 100 µM | GI50 (RPMI-8226 leukemia) > 100 µM | GI50 (786-0 renal) > 100 µM | GI50 (U251 CNS) > 100 µM | GI50 (BT-549 breast) > 100 µM | GI50 (MDA-MB-435) > 100 µM | GI50 (HS 578T breast) > 100 µM | GI50 (MDA-MB-231 breast) > 100 µM | GI50 (UO-31 renal) > 100 µM | GI50 (OVCAR-5 ovarian) > 100 µM
> 100 µM: TGI (T-47D breast) | TGI (UACC-257 melanoma) | TGI (SK-MEL-5 melanoma) | TGI (NCI-H226 lung) | TGI (PC-3 prostate) | TGI (NCI-H460 lung) | TGI (HL-60(TB) leukemia) | TGI (NCI-H522 lung) | TGI (M14 melanoma) | TGI (MALME-3M melanoma) | TGI (SW-620 colon) | TGI (OVCAR-8 ovarian) | TGI (HT29 colon) | TGI (K-562 leukemia) | TGI (SF-268 CNS) | TGI (SK-MEL-2 melanoma) | TGI (SNB-75 CNS) | TGI (TK-10 renal) | TGI (IGROV1 ovarian) | TGI (SNB-19 CNS) | TGI (NCI-H23 lung) | TGI (ACHN renal) | TGI (CCRF-CEM leukemia) | TGI (MCF7 breast) | TGI (MOLT-4 leukemia) | TGI (NCI/ADR-RES ovarian) | TGI (SK-OV-3 ovarian) | TGI (SK-MEL-28 melanoma) | TGI (A498 renal) | TGI (HOP-92 NSCLC) | TGI (HCT-116 colon) | TGI (A549 NSCLC) | TGI (HCT-15 colon) | TGI (HCC-2998 colon) | TGI (UACC-62 melanoma) | TGI (LOX IMVI melanoma) | TGI (OVCAR-4 ovarian) | TGI (COLO 205 colon) | TGI (CAKI-1 renal) | TGI (HOP-62 NSCLC) | TGI (SN12C renal) | TGI (EKVX NSCLC) | TGI (OVCAR-3 ovarian) | TGI (SF-295 CNS) | TGI (SF-539 CNS) | TGI (RPMI-8226 leukemia) | TGI (786-0 renal) | TGI (U251 CNS) | TGI (BT-549 breast) | TGI (MDA-MB-435) | TGI (HS 578T breast) | TGI (MDA-MB-231 breast) | TGI (UO-31 renal) | TGI (OVCAR-5 ovarian)

Reference: PubChem BioAssay (NCI)
